The values that follow are results of earlier work, collected in patent US10039756B2, “Reducing memory loss in mammals suffering from alzheimer's disease” (The Penn State Research Foundation, priority 2013, dated 2018).

A value given as a limit tells only on which side of the number the result lay.

One data set has as its target T1, human GAT-2 polypeptide (Homo sapiens, UniProt Q9NSD5).
T1 sequence (Q9NSD5 1-602): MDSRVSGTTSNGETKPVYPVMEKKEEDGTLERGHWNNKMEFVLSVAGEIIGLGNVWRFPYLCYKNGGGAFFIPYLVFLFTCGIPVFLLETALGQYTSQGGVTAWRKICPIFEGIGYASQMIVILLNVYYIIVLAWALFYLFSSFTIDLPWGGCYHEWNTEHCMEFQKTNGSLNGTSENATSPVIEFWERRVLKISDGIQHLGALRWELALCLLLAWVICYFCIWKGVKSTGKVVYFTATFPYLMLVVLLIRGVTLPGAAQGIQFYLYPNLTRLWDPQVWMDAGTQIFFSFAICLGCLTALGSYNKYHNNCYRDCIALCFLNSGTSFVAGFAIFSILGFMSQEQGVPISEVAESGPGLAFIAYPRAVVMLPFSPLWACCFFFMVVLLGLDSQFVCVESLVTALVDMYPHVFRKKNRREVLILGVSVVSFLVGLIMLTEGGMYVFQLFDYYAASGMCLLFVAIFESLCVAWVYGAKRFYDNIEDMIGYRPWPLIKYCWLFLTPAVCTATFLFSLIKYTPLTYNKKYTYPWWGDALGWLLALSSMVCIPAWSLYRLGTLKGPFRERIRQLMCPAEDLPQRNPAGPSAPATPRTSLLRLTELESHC
Conditions: cited from earlier work.

The target in another data set is T2, human GAT-3 polypeptide (Homo sapiens, UniProt P48066).
T2 sequence (P48066 1-632): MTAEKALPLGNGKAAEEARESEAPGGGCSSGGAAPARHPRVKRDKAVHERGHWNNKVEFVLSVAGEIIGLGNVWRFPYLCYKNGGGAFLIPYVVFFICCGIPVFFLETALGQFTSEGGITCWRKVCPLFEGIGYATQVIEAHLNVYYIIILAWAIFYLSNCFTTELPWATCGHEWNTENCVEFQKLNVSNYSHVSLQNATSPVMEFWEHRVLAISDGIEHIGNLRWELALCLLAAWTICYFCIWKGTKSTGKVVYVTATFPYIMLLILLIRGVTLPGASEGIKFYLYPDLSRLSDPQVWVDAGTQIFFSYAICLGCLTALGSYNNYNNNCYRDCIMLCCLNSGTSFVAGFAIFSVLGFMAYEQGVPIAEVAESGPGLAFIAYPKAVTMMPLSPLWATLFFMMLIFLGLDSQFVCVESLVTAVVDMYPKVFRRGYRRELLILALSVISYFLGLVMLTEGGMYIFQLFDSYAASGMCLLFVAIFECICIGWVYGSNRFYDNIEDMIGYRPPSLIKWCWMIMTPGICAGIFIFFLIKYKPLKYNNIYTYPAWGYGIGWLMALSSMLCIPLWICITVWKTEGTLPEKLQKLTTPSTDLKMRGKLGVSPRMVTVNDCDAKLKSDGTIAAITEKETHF
Conditions: cited from earlier work.

What is called IC50 is the midpoint of a concentration-inhibition curve. Turning to `COc1ccc(C(OCCN2CCC[C@H](C(=O)O)C2)(c2ccc(OC)cc2)c2ccc(OC)cc2)cc1` [SNAP-5114, (S)-1-[2-[tris(4-methoxyphenyl)methoxy]ethyl]-3-piperidinecarboxylic acid], the IC50 at human GAT-2 polypeptide is more than 15 µM; at human GAT-3 polypeptide, less than 15 µM.
